Measured values as given in patent US20070225356A1, “Preventive and/or Therapeutic Agent for Chronic Sinusitis” (Kyowa Hakko Kogo Co., Ltd, priority 2004, published 2007).
Where a name gives a salt, the structure may show the parent alone.

How the values were obtained:
[1] = system: patient diagnosed as chronic sinusitis; experiment: Test Example 1: effect of olopatadine hydrochloride on chronic sinusitis, one patient, CT and subjective symptoms; format: in vivo, human; details: for improvement of symptoms (polyp, headache, right nasal obstruction, purulent nasal discharge, closure of right olfactory cleft): administration of Klaricid and Neuzym for 2 months or more, same patient, before olopatadine hydrochloride
Method: A patient diagnosed as chronic sinusitis was orally daily administered with olopatadine hydrochloride (Allelock™ 5 mg tablet; Kyowa Hakko Kogyo Co., Ltd.) alone in a dose of one tablet two times (after breakfast and before bedtime) a day (10 mg/day) everyday. Before the administration of olopatadine hydrochloride and 2 months after the administration, computed tomography (CT) was performed to observe changes in symptoms. […] In administration of Klaricid™ (general name: clarithromycin) and Neuzym™ (general name: lysozyme chloride) for 2 months or more, improvement of these symptoms were not observed.

[2] = system: patient with chronic sinusitis complicated with allergic rhinitis; experiment: Test Example 5: transitions of symptoms, CT and plain radiography, one patient; format: in vivo, human; set-up: key to Color of inferior turbinate mucosa (objective symptom grade): +++: (Pale); ++: (Red); +: (Light red); −: (Normal); key to Postnasal drip (subjective symptom grade): +++: Always; ++: Frequently; +: Sometimes; −: No
Method: A patient with chronic sinusitis complicated with allergic rhinitis was orally administered with olopatadine hydrochloride (Allelock™ 5 mg tablet; Kyowa Hakko Kogyo Co., Ltd.) alone in a dose of one tablet two times a day for 2 months (10 mg/day). The patient had developed serious sneezing, nasal obstruction, and postnasal drip about 5 and half years ago. The patient discontinued treatment when the subjective symptoms were relieved by intermittent medication. However, improvements in the symptoms were not observed before the start of treatment by administration of the above olopatadine hydrochloride. In addition, in a nasal discharge eosinophil test (an intermediate state between clusters of eosinophils and observable weak dispersion of eosinophils in nasal discharge) and a scratch test (house dust, candida, cedar, and orchard grass), the patient was positive before the start of administration, and the chronic sinusitis of the patient was recognized to be complicated with allergic rhinitis. […] The degree of each symptom was decided on the basis of Tables 3 and 4 in reference to “Nasal Allergy Diagnosis Guideline for 2002 (Revised Fourth Edition)”. In addition, computed tomography (CT) was conducted before the administration of olopatadine hydrochloride and 1 month after and 2 months after the administration, and plain radiography (Waters method) was conducted before the administration of olopatadine hydrochloride and 2 months after the administration to observe changes in the symptoms.

[3] = system: patient diagnosed as chronic sinusitis; experiment: Test Example 3: effect 2 on chronic sinusitis, one patient, 21-day schedule, plain radiography; format: in vivo, human
Method: A patient diagnosed as chronic sinusitis was administered with olopatadine hydrochloride (Allelock™ 5 mg tablet; Kyowa Hakko Kogyo Co., Ltd.) according to the prescription schedule below (21 days in total). 1. First 7 Days (Co-Administration) Three medicines were dosed together according to the following prescription. Also, frequently used SG granules were also prescribed. Olopatadine hydrochloride 5 mg tablet: oral dose of one tablet two times a day for 7 days (10 mg/day) Gatiflo™ (general name: gatifloxacin) 200 mg tablet: oral dose of one tablet two times a day for 4 days (400 mg/day) Mucodyne™ (general name: carbocysteine) 500 mg tablet: oral dose of one tablet three times a day for 7 days (1500 mg/day) 2. Next 14 Days (Single Administration of Olopatadine Hydrochloride) Furthermore, olopatadine hydrochloride was given according to the following prescription: Olopatadine hydrochloride 5 mg tablet: oral dose of one tablet two times a day for 14 days (10 mg/day) Plain radiography was conducted before the administration of the above medicines and 21 days after the administration to observe changes in the symptoms.

[4] = system: patients with chronic sinusitis complicated with perennial allergic rhinitis; experiment: Test Example 2: degree of improvement in symptoms, 24 patients, eighth week; format: in vivo, human; details: oral 10 mg/day, other medicines may be combined
Method: Patients (24 patients, average age 33.8 years old, duration 61.5±59.7 days) with chronic sinusitis complicated with perennial allergic rhinitis were orally administered with olopatadine hydrochloride (Allelock™ 5 mg tablet; Kyowa Hakko Kogyo Co., Ltd.) in a dose of one tablet two times-(after breakfast and before bedtime) a day (10 mg/day) everyday. In this case, Mucodyne™ (general name: carbocysteine), Dasen™ (general name: serrapeptase), Polaramine™ (general name: d-chlorpheniramine maleate), Klaricid™ (general name: clarithromycin) or the like may be combined. The combined use with such a medicine was filled in a survey sheet. Such a medicine had been given for treatment before this test. At the eighth week of the administration, degrees of improvement in 1) sneezing, 2) nasal drip, 3) nasal obstruction, 4) interference with daily life, 5) mucosal swelling, 6) headache and head heaviness, and 7) postnasal drip were examined for each patient. The degree of each symptom determined with reference according to “Nasal Allergy Diagnosis Guideline for 2002 (Revised Fourth Edition)”, and the degree of improvement in each symptom was evaluated for each patient having a corresponding symptom before the administration on the basis of the four stages, i.e., disappearance, significant improvement, improvement, and no change. In the case of more than improvement (disappearance, significant improvement, or improvement), the rate of improvement was evaluated as “effective” and calculated as a rate (%) of an effective number of patients relative to the number of patients (number of cases) having a corresponding symptom before administration.

[5] = system: patient diagnosed as chronic sinusitis; experiment: Test Example 4: effect 3 on chronic sinusitis, one patient, 35-day schedule, plain radiography; format: in vivo, human
Method: A patient diagnosed as chronic sinusitis was administered with olopatadine hydrochloride (Allelock™ 5 mg tablet; Kyowa Hakko Kogyo Co., Ltd.) according to the prescription schedule below (35 days in total). 1. First 7 Days (Co-Administration) Three medicines were dosed together according to the following prescription. Olopatadine hydrochloride 5 mg tablet: oral dose of one tablet two times a day for 7 days (10 mg/day) Gatiflo™ (general name: gatifloxacin) 200 mg tablet: oral dose of one tablet two times a day for 4 days (400 mg/day) Mucodyne™ (general name: carbocysteine) 500 mg tablet: oral dose of one tablet three times a day for 7 days (1500 mg/day) 2. Next 14 Days (Co-Administration) Two medicines were further dosed together according to the following prescription. Olopatadine hydrochloride 5 mg tablet: oral dose of one tablet two times a day for 14 days (10 mg/day) Mucodyne™ 500 mg table: oral dose of one tablet three times a day for 14 days (1500 mg/day) 3. Next 14 Days (Single Administration) Furthermore, olopatadine hydrochloride was given according to the following prescription: Olopatadine hydrochloride 5 mg table: oral dose of one tablet two times a day for 14 days (10 mg/day) Plain radiography was conducted before the administration of the above medicines and 35 days after the administration to observe changes in the symptoms.

allergic rhinitis = details: Phase III test; cited from earlier work
[6] = system: experimental allergic rhinitis model; details: guinea pigs; cited from earlier work
[7] = Two weeks after administration, oral 10 mg/day alone, before administration ++
[8] = single administration for 2 months, oral 10 mg/day
[9] = first 7 days, co-administration with Gatiflo (gatifloxacin) and Mucodyne (carbocysteine), oral 10 mg/day
[10] = next 14 days, single administration, oral 10 mg/day
[11] = oral 10 mg/day alone for 2 months, one patient
[12] = next 14 days, co-administration with Mucodyne (carbocysteine), oral 10 mg/day

lysozyme chloride [Neuzym]
improvement of symptoms (polyp, headache, right nasal obstruction, purulent nasal discharge, closure of right olfactory cleft) [1]: not observed

CN(C)CC/C=C1/c2ccccc2COc2ccc(CC(=O)O)cc21 [olopatadine hydrochloride]
Color of inferior turbinate mucosa (objective symptom grade) ([2]; One month after administration, oral 10 mg/day alone, before administration ++): −
Color of inferior turbinate mucosa (objective symptom grade) [2, 7]: −
Postnasal drip (subjective symptom grade) [2, 7]: +
mucosal swelling in the ethmoidal sinus and the maxillary sinus (CT image) ([2]; single administration for 1 month, oral 10 mg/day): significantly relieved
mucosal swelling in the ethmoidal sinus and the maxillary sinus (CT image) [2, 8]: substantially disappeared
shadows observed in the maxillary sinus indicating inflammation of chronic sinusitis (plain radiograph) [2, 8]: disappeared
shadows in the plain radiograph indicating sinusitis inflammation in the ethmoidal sinus and right and left maxillary sinuses ([3]; after a total of 21 days (7 days co-administration, 14 days single)): completely disappeared
cheek pains (facial pain) and headache [3, 9]: disappeared
nasal symptoms such as purulent nasal discharge and nasal obstruction [3, 9]: improved
nasal mucosal swelling and the like [3, 10]: unobserved
nasal symptoms such as purulent nasal discharge and nasal obstruction [3, 10]: disappeared
Postnasal drip: Rate of improvement ([4]; 3 cases): 100%
Postnasal drip: patients with Disappearance ([4]; 3 cases): 3
Postnasal drip: patients with Improvement ([4]; 3 cases): 0
Postnasal drip: patients with No change ([4]; 3 cases): 0
Postnasal drip: patients with Significant improvement ([4]; 3 cases): 0
Headache, head heaviness: Rate of improvement ([4]; 5 cases): 100%
Headache, head heaviness: patients with Disappearance ([4]; 5 cases): 5
Headache, head heaviness: patients with Improvement ([4]; 5 cases): 0
Headache, head heaviness: patients with No change ([4]; 5 cases): 0
Headache, head heaviness: patients with Significant improvement ([4]; 5 cases): 0
Sneezing: Rate of improvement ([4]; 12 cases): 91.7%
Sneezing: patients with Disappearance ([4]; 12 cases): 8
Sneezing: patients with Improvement ([4]; 12 cases): 3
Sneezing: patients with No change ([4]; 12 cases): 1
Sneezing: patients with Significant improvement ([4]; 12 cases): 0
Nasal drip: Rate of improvement ([4]; 15 cases): 73.3%
Nasal drip: patients with Disappearance ([4]; 15 cases): 4
Nasal drip: patients with Improvement ([4]; 15 cases): 5
Nasal drip: patients with No change ([4]; 15 cases): 4
Nasal drip: patients with Significant improvement ([4]; 15 cases): 2
Interference with daily life: Rate of improvement ([4]; 16 cases): 87.5%
Interference with daily life: patients with Disappearance ([4]; 16 cases): 3
Interference with daily life: patients with Improvement ([4]; 16 cases): 8
Interference with daily life: patients with No change ([4]; 16 cases): 2
Interference with daily life: patients with Significant improvement ([4]; 16 cases): 3
Mucosal Swelling: Rate of improvement ([4]; 16 cases): 87.5%
Mucosal Swelling: patients with Disappearance ([4]; 16 cases): 0
Mucosal Swelling: patients with Improvement ([4]; 16 cases): 13
Mucosal Swelling: patients with No change ([4]; 16 cases): 2
Mucosal Swelling: patients with Significant improvement ([4]; 16 cases): 1
Nasal obstruction: Rate of improvement ([4]; 16 cases): 87.5%
Nasal obstruction: patients with Disappearance ([4]; 16 cases): 4
Nasal obstruction: patients with Improvement ([4]; 16 cases): 7
Nasal obstruction: patients with No change ([4]; 16 cases): 2
Nasal obstruction: patients with Significant improvement ([4]; 16 cases): 3
polyp and soft-tissue density mass which filled the right nasal cavity (CT image) [1, 11]: substantially disappeared
soft-tissue density area which filled the right ethmoidal, right sphenoidal and right frontal sinus (CT image) [1, 11]: substantially disappeared
subjective symptoms such as nasal drip and headache [1, 11]: disappeared
swelling of the inside wall toward the nasal cavity side, closure of the right olfactory cleft due to mucosal thickening (CT image) [1, 11]: relieved
shadows in the plain radiograph indicating sinusitis inflammation in the ethmoidal sinus and right and left maxillary sinuses ([5]; after a total of 35 days): completely disappeared
left cheek pain (facial pain) and malaise [5, 9]: disappeared
postnasal drip [5, 9]: not improved
purulent nasal discharge [5, 9]: decreased and substantially disappeared
all subjective symptoms ([5]; last 14 days, single administration, oral 10 mg/day): disappeared
nasal mucosal swelling and the like [5, 12]: disappeared
nasal symptoms such as purulent nasal discharge and postnasal drip [5, 12]: disappeared

CN(C)CC/C=C1/c2ccccc2COc2ccc(CC(=O)O)cc21 [compound 1, (Z)-11-(3-dimethylaminopropylidene)-6,11-dihydrodibenzo[b,e]oxepine-2-acetic acid]
nasal congestion of allergic rhinitis (allergic rhinitis): highly improve
nasal congestion reaction [6]: inhibitory action

CC[C@H]1OC(=O)[C@H](C)[C@@H](O[C@H]2C[C@@](C)(OC)[C@@H](O)[C@H](C)O2)[C@H](C)[C@@H](O[C@@H]2O[C@H](C)C[C@H](N(C)C)[C@H]2O)[C@](C)(OC)C[C@@H](C)C(=O)[C@H](C)[C@@H](O)[C@]1(C)O [Klaricid, clarithromycin]
improvement of symptoms (polyp, headache, right nasal obstruction, purulent nasal discharge, closure of right olfactory cleft) [1]: not observed
